Laboratory results taken from ChEMBL document CHEMBL5131473, “One-pot synthesis of oxoaporphines as potent antitumor agents and investigation of their mechanisms of actions” (Eur J Med Chem, 2022).
The source made the active and inactive calls. The calls are words filed in the database; no cut-off is given here.

Legend:
T-24 [1] = test: Inhibition of cell migration in human T24 cells assessed as recovery of wound area at 5 uM measured after 24 hrs by wound healing assay based fluorescence microscopy; format: functional; design: scale not given: the % may be the effect or the level left
T-24 [2] = test: Induction of DNA damage in human T24 cells assessed as DNA strand breakage by measuring comet formation at 10 uM incubated for 24 hrs by comet assay; format: functional, cell-based
T-24 [3] = test: Induction of DNA damage in human T24 cells assessed as increase in gamma H2AX expression at 10 to 15 uM incubated for 24 hrs by Western blot analysis; format: functional, cell-based; settings: dose 10-15 µM
T-24 [4] = test: Induction of apoptosis in human T24 cells assessed as increase in caspase 3 activity at 10 uM (Rvb= 3.1%); format: functional
T-24 [5] = test: Induction of cell cycle arrest in human T24 cells assessed as increase in CDK1 expression at 10 to 15 uM incubated for 24 hrs by chemiluminescence based Western blotting analysis; format: functional; settings: dose 10-15 µM, DDE = dose-dependent effect
T-24 [6] = test: Induction of mitochondrial membrane potential dysfunction in human T24 cells assessed as depolarised cells at 10 uM incubated for 24 hrs by JC-1 staining based flow cytometry (reference value: 6.20%); format: functional
T-24 [7] = test: Induction of mitochondrial membrane potential dysfunction in human T24 cells assessed as depolarised cells at 15 uM incubated for 24 hrs by JC-1 staining based flow cytometry (reference value: 6.20%); format: functional
T-24 [8] = test: Induction of mitochondrial ROS generation in human T24 cells at 10 uM measured after 24 hrs by DCFH-DA staining based confocal microscopy method; format: functional, cell-based
T-24 [9] = test: Induction of apoptosis in human T24 cells assessed as increase in caspase 9 activity at 10 uM (Rvb= 7.2%); format: functional
T-24 [10] = test: Induction of apoptosis in human T24 cells assessed as early apoptotic cells at 10 uM incubated for 24 hrs by Annexin-V/PI staining based flow cytometry analysis (reference value: 3.27 %); format: functional
T-24 [11] = test: Induction of apoptosis in human T24 cells assessed as necrotic cells at 15 uM incubated for 24 hrs by Annexin-V/PI staining based flow cytometry analysis (reference value: 1.92 %); format: functional
T-24 [12] = test: Induction of apoptosis in human T24 cells assessed as necrotic cells at 20 uM incubated for 24 hrs by Annexin-V/PI staining based flow cytometry analysis (reference value: 1.92 %); format: functional
T-24 [13] = test: Induction of apoptosis in human T24 cells assessed as early apoptotic cells at 20 uM incubated for 24 hrs by Annexin-V/PI staining based flow cytometry analysis (reference value: 3.27 %); format: functional
T-24 [14] = test: Induction of apoptosis in human T24 cells assessed as viable cells at 20 uM incubated for 24 hrs by Annexin-V/PI staining based flow cytometry analysis (reference value: 94.3 %); format: functional; settings: read-out: Activity
T-24 [15] = test: Inhibition of colony formation in human T24 cells at 0.01 uM incubated for 24 hrs and measured for 10 days; format: functional, cell-based
T-24 [16] = test: Inhibition of cell migration in human T24 cells assessed as recovery of wound area at 0.25 uM measured after 24 hrs by wound healing assay based fluorescence microscopy; format: functional; design: scale not given: the % may be the effect or the level left
T-24 [17] = test: Induction of mitochondrial membrane potential dysfunction in human T24 cells assessed as depolarised cells at 0.5 uM incubated for 24 hrs by JC-1 staining based flow cytometry (reference value: 6.20%); format: functional
T-24 [18] = test: Induction of mitochondrial membrane potential dysfunction in human T24 cells assessed as shrinking mitochondria at 0.5 uM incubated for 24 hrs by TEM analysis; format: functional, cell-based
T-24 [19] = test: Induction of mitochondrial mediated apoptosis in human T24 cells assessed as decrease in Bcl-2 protein expression at 0.5 to 1 uM incubated for 24 hrs by Western blotting analysis; format: functional, cell-based; settings: dose 0.5-1 µM
T-24 [20] = test: Induction of apoptosis in human T24 cells assessed as increase in caspase 3 activity at 1 uM (Rvb= 3.1%); format: functional
T-24 [21] = test: Induction of apoptosis in human T24 cells assessed as increase in caspase 9 activity at 0.5 uM (Rvb= 7.2%); format: functional
T-24 [22] = test: Induction of cell cycle arrest in human T24 cells assessed as accumulation of cells at G1 phase at 1 uM incubated for 24 hrs by propidium iodide/RNase A staining based flow cytometry analysis (reference value: 51.71 %); format: functional
T-24 [23] = test: Induction of cell cycle arrest in human T24 cells assessed as accumulation of cells at G2/M phase at 1 uM incubated for 24 hrs by propidium iodide/RNase A staining based flow cytometry analysis (reference value: 5.82 %); format: functional
T-24 [24] = test: Induction of apoptosis in human T24 cells assessed as necrotic cells at 0.5 uM incubated for 24 hrs by Annexin-V/PI staining based flow cytometry analysis (reference value: 1.92 %); format: functional
T-24 [25] = test: Induction of apoptosis in human T24 cells assessed as early apoptotic cells at 0.5 uM incubated for 24 hrs by Annexin-V/PI staining based flow cytometry analysis (reference value: 3.27 %); format: functional
T-24 [26] = test: Induction of apoptosis in human T24 cells assessed as condensed chromatin at 0.5 uM by Hoechst33258 staining based fluorescence microscopy; format: functional, cell-based
T-24 [27] = test: Induction of mitochondrial membrane potential dysfunction in human T24 cells assessed as nuclear condensation at 0.5 to 1 uM by mito-tracker green dye based fluorescence microscopy; format: functional, cell-based; settings: dose 0.5-1 µM
T-24 [28] = test: Inhibition of cell migration in human T24 cells assessed as recovery of wound area at 1 uM measured after 24 hrs by wound healing assay based fluorescence microscopy; format: functional; design: scale not given: the % may be the effect or the level left
[29] = Toxicity in human WI-38 cells assessed as wound closure at 1 uM measured after 24 hrs by fluorescence microscopy based wound healing assay; format: cell-based; settings: wi-38, 24 h
T-24 [30] = test: Induction of mitochondrial membrane potential dysfunction in human T24 cells assessed as change in morphology at 2 to 4 uM by Mitotracker green dye based fluorescence microscopy; format: functional, cell-based; settings: dose 2-4 µM
T-24 [31] = test: Induction of mitochondrial mediated apoptosis in human T24 cells assessed as upregulation of apaf-1 expression at 2 to 4 uM incubated for 24 hrs by Western blotting analysis; format: functional, cell-based; settings: dose 2-4 µM
T-24 [32] = test: Induction of mitochondrial ROS generation in human T24 cells at 2 uM measured after 24 hrs by Mitotracker Red dye based confocal microscopy method; format: functional, cell-based
T-24 [33] = test: Induction of Ca2+ production in human T24 cells assessed as increase in intracellular Ca2+ concentration at 2 uM by Fluo3-AM staining based fluorescence microscopic method; format: functional, cell-based
T-24 [34] = test: Induction of apoptosis in human T24 cells assessed as increase in caspase 3 activity at 2 uM (Rvb= 3.1%); format: functional
T-24 [35] = test: Induction of apoptosis in human T24 cells assessed as increase in caspase 9 activity at 4 uM (Rvb= 7.2%); format: functional
T-24 [36] = test: Induction of cell cycle arrest in human T24 cells assessed as accumulation of cells at G1 phase at 2 uM incubated for 24 hrs by propidium iodide/RNase A staining based flow cytometry analysis (reference value: 51.71 %); format: functional
T-24 [37] = test: Induction of apoptosis in human T24 cells assessed as viable cells at 6 uM incubated for 24 hrs by Annexin-V/PI staining based flow cytometry analysis (reference value: 94.3 %); format: functional; settings: read-out: Activity
T-24 [38] = test: Induction of apoptosis in human T24 cells assessed as contracted small fragmented nuclei at 2 uM by Hoechst33258 staining based fluorescence microscopy; format: functional, cell-based

Q: For `O=C1c2ccccc2-c2cccc3ccnc1c23`, which Activity (T-24 [1]) is on record?
A: The Activity was 21.7%.

Q: What about the Activity (T-24 [2]) of the same molecule?
A: Its Activity is “Active”.

Q: And the Activity (T-24 [3])?
A: The Activity was “Active”.

Q: What about the Activity (T-24 [4]) of the same molecule?
A: The Activity was 19.9%.

Q: And the Activity (T-24 [5])?
A: Its Activity is “Dde”.

Q: And the Activity (T-24 [6])?
A: The Activity was 11.7%.

Q: What about the Activity (T-24 [7]) of the same molecule?
A: Its Activity is 25.6%.

Q: And the Activity (T-24 [8])?
A: Its Activity is “Active”.

Q: What about the Activity (T-24 [9]) of the same molecule?
A: Its Activity is 24.8%.

Q: What about the Activity (T-24 [10]) of the same molecule?
A: The Activity was 14.4%.

Q: And the Activity (T-24 [11])?
A: The Activity was 2.44%.

Q: And the Activity (T-24 [12])?
A: Its Activity is 2.31%.

Q: What about the Activity (T-24 [13]) of the same molecule?
A: The Activity was 36.6%.

Q: What about the viability at 20 µM (T-24 [14]) of the same molecule?
A: The viability at 20 µM was 56.2%.

Q: For `O=C1c2ccccc2-c2ccc([N+](=O)[O-])c3ccnc1c23`, which inhibition (T-24 [15]) is on record?
A: The inhibition was “Active”.

Q: What about the Activity (T-24 [16]) of the same molecule?
A: Its Activity is 15.9%.

Q: And the Activity (T-24 [17])?
A: Its Activity is 37%.

Q: And the Activity (T-24 [18])?
A: Its Activity is “Active”.

Q: And the Activity (T-24 [19])?
A: The Activity was “Active”.

Q: And the Activity (T-24 [20])?
A: The Activity was 38.8%.

Q: What about the Activity (T-24 [21]) of the same molecule?
A: The Activity was 26.9%.

Q: And the Activity (T-24 [22])?
A: The Activity was 3.53%.

Q: What about the Activity (T-24 [23]) of the same molecule?
A: Its Activity is 61.26%.

Q: What about the Activity (T-24 [24]) of the same molecule?
A: The Activity was 1.54%.

Q: And the Activity (T-24 [25])?
A: The Activity was 35.3%.

Q: And the Activity (T-24 [26])?
A: Its Activity is “Active”.

Q: What about the Activity (T-24 [27]) of the same molecule?
A: Its Activity is “Active”.

Q: What does the source list for `O=C1c2cc([N+](=O)[O-])ccc2-c2ccc([N+](=O)[O-])c3ccnc1c23`?
A: Activity (T-24 [28]): 20.1%; Activity [29]: Non-Toxic; Activity (T-24 [30]): Active; Activity (T-24 [31]): Active; Activity (T-24 [32]): Active; Activity (T-24 [33]): Active; Activity (T-24 [34]): 24.6%; Activity (T-24 [35]): 28.9%; Activity (T-24 [36]): 0.27%; viability at 6 µM (T-24 [37]): 54.1%; Activity (T-24 [38]): Active
